The source made the active and inactive calls. Where only a bound is given, the exact number is not on record here.

These results are taken from ChEMBL document CHEMBL5523756, “Molecular Transformers: Adaptive Multitarget Ligands for Esterase-Induced Transition from Analgesics to Anesthetics” (J Med Chem, 2024).

A short description of series [1]: Stability of compound assessed as porcine liver esterase mediated propofol release by measuring half life at 1 mg/ml by HPLC analysis. Conditions: pig, isolated protein. The class given is ADME, Sus scrofa.
The test system of series [2] is Mus musculus. Kind of series: Analgesic effect in ICR mouse model of CFA-induced chronic inflammatory pain assessed as increase in paw withdrawal threshold at 0.07 mmol/kg, ip measured upto 90 mins by Von Frey test. The class given is functional, organism-based.
Series [3] addresses GABA-A receptor; alpha-1/beta-2/gamma-2 (Homo sapiens) (UniProt P14867+P47870+P18507). The series can be described thus: Agonist activity at alpha1beta2gamma2 GABA-A receptor (unknown origin) at 10 uM at -70 mV holding potential by electrophysiological recording. Type of series: protein-complex assay. Conditions: filed as agonist.
The target of series [4] is T1, Sodium channel protein type 10 subunit alpha (Homo sapiens, UniProt Q9Y5Y9). The series can be described thus: Binding affinity to Nav1.8 (unknown origin) expressed in HEK293T cells assessed as retention time of compound at 1 mg/ml by cell membrane chromatography. Type of series: cell membranes.
T1 sequence (Q9Y5Y9 whole entry, looked up): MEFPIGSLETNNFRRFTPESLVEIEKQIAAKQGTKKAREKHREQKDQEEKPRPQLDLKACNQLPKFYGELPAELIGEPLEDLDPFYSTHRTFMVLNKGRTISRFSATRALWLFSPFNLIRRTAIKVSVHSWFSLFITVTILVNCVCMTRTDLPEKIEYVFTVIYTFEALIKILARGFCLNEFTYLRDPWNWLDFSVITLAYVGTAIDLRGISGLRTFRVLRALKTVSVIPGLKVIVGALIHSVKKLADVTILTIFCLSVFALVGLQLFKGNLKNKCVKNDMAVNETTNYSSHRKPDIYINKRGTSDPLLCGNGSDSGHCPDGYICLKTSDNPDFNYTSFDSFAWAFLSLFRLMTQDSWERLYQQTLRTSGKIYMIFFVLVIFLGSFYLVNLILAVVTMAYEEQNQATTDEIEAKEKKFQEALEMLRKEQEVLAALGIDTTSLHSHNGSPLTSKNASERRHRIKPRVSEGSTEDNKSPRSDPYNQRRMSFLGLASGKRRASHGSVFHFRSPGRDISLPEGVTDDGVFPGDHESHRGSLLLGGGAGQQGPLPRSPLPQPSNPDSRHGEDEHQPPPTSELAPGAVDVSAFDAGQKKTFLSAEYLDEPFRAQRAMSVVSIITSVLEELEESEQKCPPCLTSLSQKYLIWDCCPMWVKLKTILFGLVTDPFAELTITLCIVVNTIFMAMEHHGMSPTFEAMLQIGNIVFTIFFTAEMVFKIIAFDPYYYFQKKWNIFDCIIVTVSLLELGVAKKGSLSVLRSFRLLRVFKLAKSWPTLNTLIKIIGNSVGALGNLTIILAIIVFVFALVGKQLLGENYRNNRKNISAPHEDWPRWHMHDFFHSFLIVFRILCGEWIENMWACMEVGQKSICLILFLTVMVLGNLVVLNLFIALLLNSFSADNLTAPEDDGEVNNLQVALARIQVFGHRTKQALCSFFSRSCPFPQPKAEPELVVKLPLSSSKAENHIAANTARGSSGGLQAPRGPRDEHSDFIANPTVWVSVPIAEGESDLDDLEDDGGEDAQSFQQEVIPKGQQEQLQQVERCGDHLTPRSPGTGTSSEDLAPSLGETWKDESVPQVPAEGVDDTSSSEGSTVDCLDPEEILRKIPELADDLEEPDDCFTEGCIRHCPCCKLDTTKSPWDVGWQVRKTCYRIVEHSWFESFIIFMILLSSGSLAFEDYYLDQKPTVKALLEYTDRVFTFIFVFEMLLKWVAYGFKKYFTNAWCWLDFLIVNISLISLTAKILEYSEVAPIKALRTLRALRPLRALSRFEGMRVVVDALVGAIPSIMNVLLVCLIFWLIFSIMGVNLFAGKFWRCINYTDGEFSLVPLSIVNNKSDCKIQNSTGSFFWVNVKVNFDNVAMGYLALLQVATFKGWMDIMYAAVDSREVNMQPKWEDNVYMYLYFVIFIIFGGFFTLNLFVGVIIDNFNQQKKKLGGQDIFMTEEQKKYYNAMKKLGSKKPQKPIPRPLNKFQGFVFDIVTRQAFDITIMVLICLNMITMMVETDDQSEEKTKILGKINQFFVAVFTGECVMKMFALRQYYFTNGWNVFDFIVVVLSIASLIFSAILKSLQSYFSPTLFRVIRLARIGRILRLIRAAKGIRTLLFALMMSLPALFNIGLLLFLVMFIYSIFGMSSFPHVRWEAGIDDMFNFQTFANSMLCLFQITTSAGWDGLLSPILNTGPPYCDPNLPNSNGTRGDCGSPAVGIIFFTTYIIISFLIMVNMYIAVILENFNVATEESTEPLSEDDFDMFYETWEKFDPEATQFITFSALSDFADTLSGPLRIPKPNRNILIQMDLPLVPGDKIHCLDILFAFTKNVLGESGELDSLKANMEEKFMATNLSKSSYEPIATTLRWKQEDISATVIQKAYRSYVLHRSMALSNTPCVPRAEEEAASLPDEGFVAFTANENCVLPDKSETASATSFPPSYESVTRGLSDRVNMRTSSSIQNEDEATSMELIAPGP
In series [5] the target is T1, Sodium channel protein type 10 subunit alpha. The series can be described thus: Inhibition of Nav1.8 channel (unknown origin) at -120 mV conditioning pulse by voltage clamp electrophysiological recording.
The nature of series [6]: Toxicity in ICR mouse assessed as survival rate at 1.5 times ED50 administered intravenously. Conditions: in vivo, route iv.
For series [7], the target named is T1, Sodium channel protein type 10 subunit alpha. The series can be described thus: Binding affinity to Nav1.8 (unknown origin) expressed in HEK293T cells at 1 mg/ml by cell membrane chromatography. The class given is cell membranes.
The subject of series [8] is Mus musculus. The series can be described thus: Anesthetic effect in iv dosed ICR mouse by up-and-down method. Type of series: functional.

`CC(C)c1cccc(C(C)C)c1OC(=O)CCN1CCN(C(C)C)CC1.Cl`: the t1/2 in series [1] is greater than 120 min.
For `CC(C)c1cccc(C(C)C)c1O`, in series [2], the result was inactive. Further, in series [3], the outcome was Active.
With `CC(C)c1cccc(C(C)C)c1OC(=O)CN1CCOCC1`, in series [4], the Retention time was 0.5 min.
As for `CC(C)c1cccc(C(C)C)c1Oc1ccc(C[C@@H](N)C(N)=O)cc1`, the inhibition result in series [5] is “Active”.
Turning to `Cc1cc(F)ccc1Oc1cc(C(F)(F)F)ccc1C(=O)Nc1ccn(COP(=O)(O)O)c(=O)c1`, the Retention time in series [4] was found to be 2.6 min.
On the same count and under the same terms, under `CC(C)c1cccc(C(C)C)c1OC(=O)CCN1CCOCC1` stands 0.9 min.
As for `Cc1cc(COc2c(C(C)C)cccc2C(C)C)cc(C)c1CN`, the inhibition result in series [5] is “Active”.
For `CC1CC(C)CN(CCCOC(=O)Oc2c(C(C)C)cccc2C(C)C)C1.Cl` (configuration not stated), the t1/2 in series [1] is 3.428 min.
With `CC(C)c1cccc(C(C)C)c1C(=O)c1ccc2c(CN(C)C)c[nH]c2c1`, the inhibition entry in series [5] is “Active”.
Take `CC(C)c1cccc(C(C)C)c1OC(=O)CN1CCSCC1.Cl`: the t1/2 in series [1] was 22.97 min.
As to `CC1CN(CC(=O)Oc2c(C(C)C)cccc2C(C)C)CC(C)O1.Cl` (configuration not stated), in series [1], the t1/2 was 7.227 min. Moreover, the Retention time in series [4] was found to be 0.5 min.
Take `CC(C)c1cccc(C(C)C)c1OC(=O)CN1CCS(=O)(=O)CC1.Cl`: the t1/2 in series [1] is given as greater than 30 min.
Consider `CC(C)c1cccc(C(C)C)c1C(=O)CSc1cccc[n+]1[O-]`, for which the inhibition result in series [5] is “Active”.
On to `CC1CN(CCC(=O)Oc2c(C(C)C)cccc2C(C)C)CC(C)O1.Cl` (configuration not stated), for which the t1/2 in series [1] worked out at 1.429 min. In addition, the Retention time in series [4] was 3.1 min.
Regarding `CC(C)c1cccc(C(C)C)c1OC(=O)CN1CCCCC1`, the result in series [2] was Active. In series [6], the survival was 100%.
Regarding `CC(C)c1cccc(C(C)C)c1C(=O)c1ccc(N(C)CCS(=O)(=O)O)cc1`, the outcome in series [2] and in series [7] was Active. The inhibition entry in series [5] is “Active”.
Take `CC(C)c1cccc(C(C)C)c1OC(=O)OCCN1CCSCC1.Cl`: in series [1], the t1/2 is given as 4.03 min.
`COCCN(CCOC)CCOC(=O)Oc1c(C(C)C)cccc1C(C)C.Cl`: the t1/2 in series [1] is 6.925 min.
Regarding `CCN(CC)CCCOC(=O)Oc1c(C(C)C)cccc1C(C)C.Cl`, the t1/2 in series [1] was less than 8.609 min. The Retention time in series [4] is 37.1 min.
`COc1cc(-c2cc(C(=O)O)n[nH]2)ccc1Oc1c(C(C)C)cccc1C(C)C`: the inhibition entry in series [5] was “Active”.
Regarding `CCN1CCN(CC(=O)Oc2c(C(C)C)cccc2C(C)C)CC1.Cl`, the t1/2 in series [1] is greater than 120 min.
With `CCN1CCN(CCOC(=O)Oc2c(C(C)C)cccc2C(C)C)CC1.Cl`, the t1/2 in series [1] stood at 4.684 min.
On to `COCCN(CCOC)CC(=O)Oc1c(C(C)C)cccc1C(C)C.Cl`, for which, in series [1], the t1/2 stood at 6.712 min.
`CC(C)c1cccc(C(C)C)c1OC(=O)OCCN1CCCCC1`: the Retention time in series [4] worked out at 1 min.
Take `COc1ccc(CNc2c(C(C)C)cccc2C(C)C)cc1OCC(N)=O`: in series [5], the inhibition result is “Active”.
In the case of `CCCN(CCO)CCOC(=O)Oc1c(C(C)C)cccc1C(C)C.Cl`, the t1/2 in series [1] is given as less than 8.609 min.
Turning to `CCN(CC)CC(=O)Oc1c(C(C)C)cccc1C(C)C.Cl`, the t1/2 in series [1] worked out at 4.07 min. Moreover, the Retention time in series [4] is 11.4 min. In addition, the ED50 in series [8] is 77 µmol/kg. The outcome in series [2] was Active. Moreover, the survival in series [6] is 100%.
Take `Cc1nccn1Cc1ccc(C(=O)c2c(C(C)C)cccc2C(C)C)o1`: the inhibition entry in series [5] is “Active”.
Regarding `CCN1CCN(CCC(=O)Oc2c(C(C)C)cccc2C(C)C)CC1.Cl`, the t1/2 in series [1] was greater than 120 min.
Consider `CC1CN(CCCOC(=O)Oc2c(C(C)C)cccc2C(C)C)CC(C)O1` (configuration not stated), for which the Retention time in series [4] was found to be 12.4 min.
On to `CC(C)c1cccc(C(C)C)c1OC(=O)CN1CCOCC1C` (configuration not stated), for which the Retention time in series [4] is 0.8 min.
Take `CC1CN(CCOC(=O)Oc2c(C(C)C)cccc2C(C)C)CC(C)O1` (configuration not stated): in series [4], the Retention time stood at 11.8 min.
For the molecule `CC(C)c1cccc(C(C)C)c1OC1CCN(c2ccc(C(=O)O)cc2)CC1`, the inhibition result in series [5] was “Active”.
Consider `CC1CC(C)CN(CCOC(=O)Oc2c(C(C)C)cccc2C(C)C)C1.Cl` (configuration not stated), for which the t1/2 in series [1] is 9.305 min. Moreover, the Retention time in series [4] was greater than 110 min.
On to `CCN(CC)CCC(=O)Oc1c(C(C)C)cccc1C(C)C.Cl`, for which, in series [1], the t1/2 was 3.288 min. The Retention time in series [4] came out at 18.5 min. In addition, in series [8], the 50% effective dose (ED50) worked out at 64 µmol/kg. For the same molecule, the result in series [2] was Active. Also, the survival in series [6] turned out to be 100%.
As for `CC(C)c1cccc(C(C)C)c1OC(=O)OCCN1CCN(C(C)C)CC1.Cl`, the t1/2 in series [1] is given as greater than 120 min.
Consider `Cc1cc(C(=O)c2c(C(C)C)cccc2C(C)C)ccc1N1C(=O)C=CC1=O`, for which the inhibition entry in series [5] is “Active”.
With `CC(C)c1cccc(C(C)C)c1OC(=O)CN1CCN(CCO)CC1.Cl`, the t1/2 in series [1] is reported as greater than 120 min.
On to `CC1CC(C)CN(CC(=O)Oc2c(C(C)C)cccc2C(C)C)C1` (configuration not stated), for which the Retention time in series [4] was greater than 110 min.
As to `CC(C)c1cccc(C(C)C)c1OC(=O)OCCN1CCN(CCO)CC1.Cl`, in series [1], the t1/2 is on record as 63.54 min.
For the molecule `CC(C)c1cccc(C(C)C)c1OC(=O)CN1CCN(C(C)C)CC1.Cl`, in series [1], the t1/2 is greater than 120 min.

The term ED50 denotes the midpoint of the dose-response relation.
